Laboratory results reported in patent US9750742B2, “Small molecular inhibitors of RAD51 recombinase and methods thereof” (Drexel University, priority 2011, dated 2017).
“Also recorded” adds a separate entry of the source.

Assays:
RAD54 = target: T1, RAD54 (Homo sapiens, UniProt Q92698); experiment: DNA branch migration assay for RAD54; type: biochemical; conditions: 0 to 200 μM
T1 construct: made in house
T1 sequence (Q92698 1-747): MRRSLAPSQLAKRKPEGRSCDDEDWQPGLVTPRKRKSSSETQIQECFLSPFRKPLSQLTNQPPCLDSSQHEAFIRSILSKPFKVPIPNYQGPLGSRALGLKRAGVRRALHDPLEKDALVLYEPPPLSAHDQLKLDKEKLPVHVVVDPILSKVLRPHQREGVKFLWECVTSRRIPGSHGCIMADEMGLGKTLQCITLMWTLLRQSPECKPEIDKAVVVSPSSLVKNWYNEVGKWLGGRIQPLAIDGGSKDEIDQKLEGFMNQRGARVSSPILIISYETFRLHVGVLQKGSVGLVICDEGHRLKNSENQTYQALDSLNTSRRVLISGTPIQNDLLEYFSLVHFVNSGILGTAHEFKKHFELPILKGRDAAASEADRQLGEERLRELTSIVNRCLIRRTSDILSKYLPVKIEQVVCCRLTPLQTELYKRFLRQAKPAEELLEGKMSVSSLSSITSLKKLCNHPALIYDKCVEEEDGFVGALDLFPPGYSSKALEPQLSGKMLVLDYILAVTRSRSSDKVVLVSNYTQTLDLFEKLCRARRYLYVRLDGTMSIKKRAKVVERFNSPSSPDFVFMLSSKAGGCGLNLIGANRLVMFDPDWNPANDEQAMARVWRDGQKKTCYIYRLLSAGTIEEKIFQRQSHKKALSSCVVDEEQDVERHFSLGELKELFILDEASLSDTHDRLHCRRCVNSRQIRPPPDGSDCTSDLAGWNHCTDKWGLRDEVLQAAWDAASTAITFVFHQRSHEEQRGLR
Description: The partial Holliday junction (PX-junction), in which one of the four DNA arms is single-stranded (FIG. 6A), was used as a substrate for the 4-stranded branch migration promoted by RAD54 (Mazina et al., 2007, J. Biol. Chem. 282:21068-80). […] To produce PX-junctions, tailed DNA (Oligo 170, SEQ ID NO:9; Oligo 171, SEQ ID NO:10) (1.45 μM, molecules) was annealed with ^32P-labeled fork DNA (Oligo 71, SEQ ID NO:7; Oligo 169, SEQ ID NO:8) (1.33 μM, molecules) in branch migration buffer containing 25 mM Tris acetate, pH 7.5, 3 mM magnesium acetate, 2 mM ATP, 1 mM dithiothreitol, 100 μg ml^−1 bovine serum albumin, 10 U ml^−1 creatine phosphokinase, 15 mM creatine phosphate for 10 min at 37° C. and then for 10 min at 30° C. Then, branch migration was initiated immediately by addition of the RAD54 (100 nM) to PX-junctions (33 nM, molecules) in branch migration buffer and was carried out at 30° C. […] The DNA products were deproteinized by treatment with stop buffer (1.4% (w/v) SDS, 960 μg ml^−1 proteinase K, 7.5% (w/v) glycerol, 0.015% (w/v) bromphenol blue) for 5 min at 22° C. and analyzed by electrophoresis in 8% (w/v) polyacrylamide gels (29:1) in 1×TBE buffer (89 mM Tris borate, pH 8.3, and 1 mM EDTA) at 22° C. The gels were dried on DE81 chromatography paper (Whatman, Kent, UK) and quantified using a Storm 840 PhosphorImager (Molecular Dynamics, Piscataway, N.J.).

RecA = target: T2, RecA (Escherichia coli, UniProt P0A7G6); experiment: biochemical; design: species or system E. coli
T2 construct: purchased USB Inc. (Cleveland, Ohio)
T2 sequence (P0A7G6 whole entry): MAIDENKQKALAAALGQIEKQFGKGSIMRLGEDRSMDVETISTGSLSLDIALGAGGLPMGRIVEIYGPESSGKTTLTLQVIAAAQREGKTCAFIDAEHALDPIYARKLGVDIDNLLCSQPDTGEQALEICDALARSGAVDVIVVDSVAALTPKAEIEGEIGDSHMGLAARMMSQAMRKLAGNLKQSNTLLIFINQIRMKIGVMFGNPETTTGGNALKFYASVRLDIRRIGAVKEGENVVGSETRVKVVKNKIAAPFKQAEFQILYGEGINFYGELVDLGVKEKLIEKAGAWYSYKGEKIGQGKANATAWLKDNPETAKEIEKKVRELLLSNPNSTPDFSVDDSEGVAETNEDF
Description: (Mazin et al., 2000, EMBO J. 19:1148-56). When indicated, chemical compounds in specified concentrations were added and incubation was continued for 30 min at 37° C. D-loop formation was initiated by addition of supercoiled pUC19 dsDNA (50 μM, nt) and carried out for 3 min at 37° C. The DNA products were deproteinized and analyzed as described above for the Rad51-promoted reaction.
IC50 values were calculated using GraphPad Prism V5.0 software and the sigmoidal dose-response function. The data were obtained from three independent repeats of experiments.

Tp53−/− MEF cells = experiment: Clonogenic survival assay, Tp53−/− MEF; type: cell-based, mouse
Description: Briefly, MEF cells were trypsinized and the appropriate number of cells was replated on 10 cm tissue culture dishes. […] Cells were fixed and stained using staining solution (0.05% crystal violet, 50% methanol in PBS); colonies were counted using an AlphaImager 3400 (Alpha Innotech Inc.). The percent of survival was determined as described (Hall & Giccia, 2005, “Radiobiology for the Radiologist”, 6th Ed., Philadelphia, Pa.: Lippincott Williams & Wilkins, pp. 30-45). The percent of survival obtained from untreated cells was normalized to 100% survival.

RAD51 = target: T3, RAD51 (Homo sapiens, UniProt Q06609); experiment: B02 binding to RAD51 by SPR; conditions: absence of ATP
T3 construct: made in house
T3 sequence (Q06609 1-339): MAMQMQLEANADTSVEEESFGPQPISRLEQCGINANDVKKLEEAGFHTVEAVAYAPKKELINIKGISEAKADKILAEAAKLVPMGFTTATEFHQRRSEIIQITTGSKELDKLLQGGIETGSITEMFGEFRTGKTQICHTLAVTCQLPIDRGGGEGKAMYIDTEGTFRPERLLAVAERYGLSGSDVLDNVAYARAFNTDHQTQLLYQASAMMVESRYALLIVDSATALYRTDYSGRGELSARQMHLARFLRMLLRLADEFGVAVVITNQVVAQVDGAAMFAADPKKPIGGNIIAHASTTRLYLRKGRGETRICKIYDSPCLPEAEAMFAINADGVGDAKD
Description: Data were analyzed using the ProteOn Manager Software version 3.0 (Bio-Rad).

[1] = tested on: DR-GFP reporter system in 293 human embryonic kidney (HEK) cells; experiment: DR-GFP assay for homologous recombination in human cells; type: cell-based; conditions: B02 20 μM; non-treatment cells 3.28%
Description: 293 HEK cells expressing DR-GFP were grown until the log phase. […] Then a 200 μl mixture containing 2 μg of pCBASce supercoiled plasmid DNA encoding I-SceI rare-cutting restriction endonuclease (Richardson et al., 1998, Genes Dev. 12:3831-42) and 6 μl of GenDrill™ transfection reagent (BamaGen BioScience LLC) in Opti-MEM® I Reduced-Serum (Invitrogen) was added to each well. After 2 days incubation, cells were trypsinized and diluted to density of 200 cells/μl in PBS (10 mM Na2HPO4, 1.76 mM KH2PO4, 137 mM NaCl and 2.7 mM KCl, pH 7.4) for Fluorescence Activated Cell Sorting (FACS) analysis on a Guava EasyCyte Plus System (Millipore, Billerica, Mass.).

## O=c1c2ccccc2nc(/C=C/c2cccnc2)n1Cc1ccccc1 [Compound B02, (E)-3-benzyl-2-(2-(pyridin-3-yl)vinyl)quinazolin-4(3H)-one]
RAD54
  inhibition of RAD54 branch migration, in words: not to significantly inhibit
RecA; IC50 (RecA), RecA 1 μM, ssDNA 3 μM, dsDNA 50 μM
  IC50: > 250 µM
RecA; IC50 for RecA (D-loop), RecA 0.3 μM, ssDNA 0.9 μM, dsDNA 15 μM, B02 incubated with protein before ssDNA
  IC50: > 100 µM
RecA; up to 250 μM
  inhibition of RecA DNA strand exchange, in words: no significant inhibition
Tp53−/− MEF cells; B02 5 μM
  sensitivity to cisDDP (cisplatin) and MMC: more sensitive; also recorded: increased
Tp53−/− MEF cells; up to 5 μM, Tp53−/− MEF
  cellular viability, B02 alone: No decrease of cellular viability; also recorded: did not have a substantial effect
RAD51
  kd: 2.5 (±0.3)×10^−2 s^−1
[1]
  yield of GFP positive cells (I-SceI-induced): 0.40%
